Bridge positions count the residues as written; N and C are the ends. Square brackets hold non-standard residues; d marks the D form. Peptide text beside a SMILES is read from it. Ala(cPent) = N[C@@H](CC1CCCC1)C(=O)O; Orn(iPr) = CC(C)NCCC[C@H](N)C(=O)O; Cha = N[C@@H](CC1CCCCC1)C(=O)O; Orn = NCCC[C@H](N)C(=O)O; Dab = NCC[C@H](N)C(=O)O; Ac4c = NC1(C(=O)O)CCC1

The experiment deals with T1, hV1a receptor (Homo sapiens, UniProt P37288).
T1 construct: expressed in transfected cells; host or cells: HEK-293
T1 sequence (P37288 whole entry): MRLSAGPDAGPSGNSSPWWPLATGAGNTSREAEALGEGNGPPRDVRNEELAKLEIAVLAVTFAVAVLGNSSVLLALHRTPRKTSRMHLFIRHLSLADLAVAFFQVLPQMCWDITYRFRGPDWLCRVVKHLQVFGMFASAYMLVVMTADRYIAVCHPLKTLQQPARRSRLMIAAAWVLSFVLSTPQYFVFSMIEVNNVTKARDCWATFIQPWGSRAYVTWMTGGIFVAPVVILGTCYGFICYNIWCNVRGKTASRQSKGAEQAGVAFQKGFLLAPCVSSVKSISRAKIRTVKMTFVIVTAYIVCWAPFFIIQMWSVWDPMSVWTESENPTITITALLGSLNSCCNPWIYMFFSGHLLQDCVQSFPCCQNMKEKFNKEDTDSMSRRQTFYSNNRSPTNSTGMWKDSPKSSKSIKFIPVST
The experiment is described as follows: hV1a receptor agonist transcriptional reporter (luciferase) assay in transiently transfected HEK-293 cells. Conditions: agonist activity; HEK-293 cells transiently transfected with hV1a receptor and calcium-responsive luciferase reporter; 5 hours exposure; geometric mean of at least three independent experiments; read-out: EC50 (median effective concentration). The format is cell-based. The procedure:
Agonist activity of compounds on the hV1a receptor was determined in a transcriptional reporter assay by transiently transfecting a hV1a receptor expression DNA into HEK-293 cells in concert with a reporter DNA containing intracellular calcium responsive promoter elements regulating expression of firefly luciferase. See Boss, V., Talpade, D. J., Murphy, T. J. J. Biol. Chem. 1996, May 3; 271(18), 10429-10432 for further guidance on this assay. […] Arginine-vasopressin (AVP) was used as an internal control in each experiment, and compounds were tested in at least three independent experiments.
The results of the in vitro assays are depicted in table 1 supra. The EC50 value given is the geometric mean expressed in nanomol/L (nM). Selectivity values are given as EC50 ratios.
As to `CC[C@H](C)[C@@H]1NC(=O)[C@H](CC2CCCC2)NC(=O)[C@@H](N)CSSC[C@@H](C(=O)N2CCC[C@H]2C(=O)N[C@@H](CCCN)C(=O)NCC(N)=O)NC(=O)[C@H](CC(N)=O)NC(=O)[C@H](CC(N)=O)NC1=O` [Compound 7] (H-C[Ala(cPent)]INNCP[Orn]G-NH2; disulfide 1-6), the EC50 was found to be 7.7 nM.
As to `CC[C@H](C)[C@@H]1NC(=O)[C@H](CC2CCCCC2)NC(=O)[C@@H](N)CSSC[C@@H](C(=O)N2CCC[C@H]2C(=O)N[C@@H](CCN)C(=O)NCC(N)=O)NC(=O)[C@H](CC(N)=O)NC(=O)[C@H](CC(N)=O)NC1=O` [Compound 12] (H-C[Cha]INNCP[Dab]G-NH2; disulfide 1-6; N-terminus assumed), the EC50 worked out at 2.28 nM.
With `CC[C@H](C)[C@@H]1NC(=O)[C@H](CC2CCCCC2)NC(=O)[C@@H](N)CSSC[C@@H](C(=O)N2CCC[C@H]2C(=O)N[C@@H](CCCN)C(=O)NCC(N)=O)NC(=O)[C@H](CC(N)=O)NC(=O)[C@H](CC(N)=O)NC1=O` [Compound 8] (H-C[Cha]INNCP[Orn]G-NH2; disulfide 1-6), the EC50 amounted to 0.75 nM.
Regarding `CC[C@H](C)[C@@H]1NC(=O)[C@H](CC2CCCCC2)NC(=O)[C@@H](N)CSSC[C@@H](C(=O)N2CCC[C@H]2C(=O)N[C@@H](CCCNC(C)C)C(=O)NCC(N)=O)NC(=O)[C@H](CC(N)=O)NC(=O)[C@H](CC(N)=O)NC1=O` [Compound 4, [Cha^2, Asn^4, Orn (i-Pr)^8]VT] (H-C[Cha]INNCP[Orn(iPr)]G-NH2; disulfide 1-6), the EC50 turned out to be 10.7 nM.
Consider `CC[C@H](C)[C@@H]1NC(=O)C2(CCC2)NC(=O)[C@@H](N)CSSC[C@@H](C(=O)N2CCC[C@H]2C(=O)N[C@@H](CCN)C(=O)NCC(N)=O)NC(=O)[C@H](CC(N)=O)NC(=O)[C@H](CC(N)=O)NC1=O` [Compound 9] (H-C[Ac4c]INNCP[Dab]G-NH2; disulfide 1-6; N-terminus assumed), for which the EC50 is 14.8 nM.
Take `CC[C@H](C)[C@@H]1NC(=O)C2(CCC2)NC(=O)[C@@H](N)CSSC[C@@H](C(=O)N2CCC[C@H]2C(=O)N[C@@H](CCCN)C(=O)NCC(N)=O)NC(=O)[C@H](CC(N)=O)NC(=O)[C@H](CC(N)=O)NC1=O` [Compound 6] (H-C[Ac4c]INNCP[Orn]G-NH2; disulfide 1-6): the EC50 stood at 7.93 nM.
